Measured values taken from patent US9604987B2, “Synthesis of autophagy inducing compound and the uses thereof” (Hong Kong Baptist University, priority 2012, dated 2017).

Legend:
[1] = tested on: α-syn oligomers; assay: BiFC-based cell model of α-syn oligomer clearance (flow cytometry); details: 25 μM, 24 hours
Protocol: Second, the effect of Cory B on α-syn oligomers clearance is tested using a bimolecular fluorescence complementation (BiFC)-based cell model which enables visualization of α-syn oligomers. Two non-fluorescent fragments of GFP, GFP-N terminal fraction and GFP-C terminal fraction, are fused with α-syn protein; interaction of the two fragments reconstitutes the fluorophore (FIG. 5G). The presence of fluorescence signal indicates the formation of α-syn oligomers within cells. Mock transfected cells are used as blanks to gate the fluorescence-positive cells and signals stronger than 10^1 RFU are considered as positive α-syn oligomers formation. Cells are treated with 25 μM Cory B and/or 5 mM 3-MA for 24 hours and harvested for flow cytometry analysis.

[2] = tested on: SH-SY5Y cells; assay: Western blot of autophagy marker LC3-II in SH-SY5Y cells; type: cell-based, human; details: 0-25 μM, 24 hours
Protocol: Native and denatured PAGE and Western blotting analysis. Samples to be run under denaturing conditions were lysed with RIPA lysis buffer (150 mM NaCl, 50 mM Tris-HCl, 0.35% sodium deoxycholate, 1 mM EDTA, 1% NP40, 1 mM PMSF, 5 μg/ml aprotinin, 5 μg/ml leupeptin). Samples for native gels were lysed with detergent-free lysis buffer (50 mM Tris/HCl pH 7.4, 175 mM NaCl, 5 mM EDTA pH 8.0, 1 mM PMSF, 5 μg/ml aprotinin, 5 μg/ml leupeptin), and sheared 5 times through a 28-gauge needle followed by 2 times of sonication for 5 seconds according to previously described protocol. For denaturing, SDS-PAGE was performed using Tris-Glycine SDS running buffer and SDS sample buffer, and for native conditions, native-PAGE was run with detergent-free Tris-Glycine running buffer (BN2007, Invitrogen) and 4× native sample buffer (BN2003, Invitrogen) on a pre-casted native PAGE gel (BN1002BOX, Invitrogen). The proteins on the gels were then transferred to PVDF membrane (RPN303F, GE Healthcare) and processed for immunoblotting. Membranes were blocked with 5% non-fat milk and probed with the appropriate primary and secondary antibodies. The desired bands were visualized using the ECL kit (32106, Pierce). The band density was quantified using the ImageJ program and normalized to that of the control group. […]

[3] = tested on: α-syn (WT, A53T, A30P) in N2a cells; assay: Clearance of over-expressed WT and mutant α-syn in N2a cells (western blot); type: cell-based, mouse
Protocol: Native and denatured PAGE and Western blotting analysis. Samples to be run under denaturing conditions were lysed with RIPA lysis buffer (150 mM NaCl, 50 mM Tris-HCl, 0.35% sodium deoxycholate, 1 mM EDTA, 1% NP40, 1 mM PMSF, 5 μg/ml aprotinin, 5 μg/ml leupeptin). Samples for native gels were lysed with detergent-free lysis buffer (50 mM Tris/HCl pH 7.4, 175 mM NaCl, 5 mM EDTA pH 8.0, 1 mM PMSF, 5 μg/ml aprotinin, 5 μg/ml leupeptin), and sheared 5 times through a 28-gauge needle followed by 2 times of sonication for 5 seconds according to previously described protocol. For denaturing, SDS-PAGE was performed using Tris-Glycine SDS running buffer and SDS sample buffer, and for native conditions, native-PAGE was run with detergent-free Tris-Glycine running buffer (BN2007, Invitrogen) and 4× native sample buffer (BN2003, Invitrogen) on a pre-casted native PAGE gel (BN1002BOX, Invitrogen). The proteins on the gels were then transferred to PVDF membrane (RPN303F, GE Healthcare) and processed for immunoblotting. Membranes were blocked with 5% non-fat milk and probed with the appropriate primary and secondary antibodies. The desired bands were visualized using the ECL kit (32106, Pierce). The band density was quantified using the ImageJ program and normalized to that of the control group.
N2a cells over-expressed in WT and α-syn mutants (A53T and A30P) and N2a cells with GFP as negative control are subjected to Cory B treatment for 24 hours. […] Data presents as the mean±SEM from 3 independent experiments (*p<0.05, one-way ANOVA for multiple comparison and Tukey's test as post hoc test).

[4] = tested on: WT and A53T α-syn in differentiated DA neurons; assay: α-syn degradation in human dopaminergic neurons differentiated from embryonic stem cells; type: cell-based
Text: Differentiation of stem cells into dopaminergic neurons. The human embryonic stem (ES) cells were differentiated into dopaminergic neurons according to a previously described protocol with minor changes. Initially, ES cells were digested with dispase (17105041, Invitrogen,) and broken into smaller clusters to form the embryonic bodies. The next day, undifferentiated floating ES cell aggregates were transferred to a new flask. The cells were maintained in DMEM/F12 medium (11320082, Invitrogen) with half medium changed every day for 3 days. On the fourth day, ES cell aggregates were collected by centrifuge and re-suspended in NSM (DMEM/F12 containing 1% N2 supplement (17502048, Invitrogen), 1 μg/ml Heparin (H3149, Sigma), 200 μM NEAA (11140050, Invitrogen) and 2 mM L-glutamine (25030081, Invitrogen)) supplemented with 10% FBS. Embryonic stem cells were transferred to a new flask and medium was changed every other day. Three days later, cell aggregates were transferred to 6-well-plates. The next day, the FBS containing media were replaced with NSM containing 20 ng/ml FGF8 (PHG0184, Invitrogen) and 100 ng/ml SHH (PMC2095, Invitrogen), media were changed every other day. Five days later, the colonies in the dish were detached by pipetting gently with a P1000 pipette. […]

Compound: CC[C@@H]1CN2CC[C@]3(C(=O)Nc4ccccc43)C2C[C@@H]1C(=COC)C(=O)OC (stereo partly drawn) [Cory B, Corynoxine B]
- degradation of α-syn oligomers (fluorescence intensity) [1]: promotes degradation of α-syn oligomers
- LC3-II levels [2]: increases levels of LC3-II
- α-syn pro-clearance activity under 3-MA and CQ ([3]; 5 mM 3-MA and 30 μM CQ): abolish pro-clearance activity
- WT and mutant α-syn levels ([3]; N2a over-expressing WT, A53T, A30P α-syn, 24 hours): reduces WT and mutant α-syn levels in a dose-dependent manner
- GFP levels (negative control protein) ([3]; N2a with GFP, 24 hours): does not reduce GFP levels
- WT and A53T α-syn levels [4]: dramatically decreases both WT and A53T α-syn levels
